Measurements published in ChEMBL document CHEMBL1201862, “PubChem BioAssay data set” (2004).
Activity calls are given as the source filed them.

Experiments:
[1] = P. falciparum Dd2 growth inhibitors, dose response, SYBR Green, cherry-picked samples (AID 1159567); assay type: functional, cell-based
[2] = A549 cell cytotoxicity, dose response, cytotoxicity control, cherry-picks, 26 µM top dose (AID 1053119); assay type: functional, cell-based
[3] = inhibitors of fibronectin matrix deposition, dose response, AH1F cells, Alexa488-FN fluorescence, cherry-picks (AID 1035475); assay type: functional, cell-based
[4] = HEK293 cell cytotoxicity, dose response, cytotoxicity control, cherry-picks, set 5 (AID 1053117); assay type: functional, cell-based
[5] = HepG2 cell cytotoxicity, dose response, cytotoxicity control, cherry-picks, set 5 (AID 1053118); assay type: functional, cell-based
[6] = HepG2 cell cytotoxicity, dose response, cytotoxicity control, cherry-picked samples (AID 1159577); assay type: functional, cell-based
[7] = molecular target: 1-phosphatidylinositol 4,5-bisphosphate phosphodiesterase beta-3 (Homo sapiens, UniProt Q01970); assay: Fluorescence-based biochemical high throughput dose response assay to identify inhibitors of phospholipase C isozymes (PLC-B3).
Chain of 1-phosphatidylinositol 4,5-bisphosphate phosphodiesterase beta-3 (Q01970 whole entry): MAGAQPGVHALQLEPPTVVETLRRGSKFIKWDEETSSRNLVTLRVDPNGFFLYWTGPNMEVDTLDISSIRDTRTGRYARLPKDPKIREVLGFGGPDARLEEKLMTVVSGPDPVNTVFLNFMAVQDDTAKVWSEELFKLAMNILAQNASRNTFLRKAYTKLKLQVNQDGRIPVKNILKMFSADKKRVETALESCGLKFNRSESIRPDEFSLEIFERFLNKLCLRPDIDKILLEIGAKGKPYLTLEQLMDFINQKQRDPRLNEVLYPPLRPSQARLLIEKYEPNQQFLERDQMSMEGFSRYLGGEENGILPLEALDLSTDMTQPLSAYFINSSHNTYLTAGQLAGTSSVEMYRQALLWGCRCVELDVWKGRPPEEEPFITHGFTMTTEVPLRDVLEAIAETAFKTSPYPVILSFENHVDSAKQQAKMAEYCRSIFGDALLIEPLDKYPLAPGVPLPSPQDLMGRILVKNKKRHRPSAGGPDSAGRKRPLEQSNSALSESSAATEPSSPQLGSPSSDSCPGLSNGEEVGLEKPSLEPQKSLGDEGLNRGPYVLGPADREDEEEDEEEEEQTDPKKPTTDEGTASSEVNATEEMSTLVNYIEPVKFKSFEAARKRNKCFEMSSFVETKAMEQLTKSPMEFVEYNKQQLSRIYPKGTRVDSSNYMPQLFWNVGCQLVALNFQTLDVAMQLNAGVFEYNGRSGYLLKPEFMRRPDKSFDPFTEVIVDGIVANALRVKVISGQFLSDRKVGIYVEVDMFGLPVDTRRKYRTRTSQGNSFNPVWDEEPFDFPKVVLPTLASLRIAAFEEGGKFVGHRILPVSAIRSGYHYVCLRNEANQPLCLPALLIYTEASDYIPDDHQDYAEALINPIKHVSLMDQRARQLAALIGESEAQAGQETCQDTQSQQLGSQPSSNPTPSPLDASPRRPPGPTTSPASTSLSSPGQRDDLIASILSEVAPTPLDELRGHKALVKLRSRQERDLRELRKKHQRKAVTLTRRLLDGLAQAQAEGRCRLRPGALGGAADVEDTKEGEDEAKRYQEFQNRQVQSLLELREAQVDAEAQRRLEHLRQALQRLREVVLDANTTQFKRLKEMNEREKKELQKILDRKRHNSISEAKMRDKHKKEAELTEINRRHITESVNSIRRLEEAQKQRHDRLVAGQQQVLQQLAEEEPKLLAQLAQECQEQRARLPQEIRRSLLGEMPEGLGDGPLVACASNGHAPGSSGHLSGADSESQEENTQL

[8] = molecular target: 1-phosphatidylinositol 4,5-bisphosphate phosphodiesterase gamma-1 (Homo sapiens, UniProt P19174); assay: Counterscreen for inhibitors of phospholipase C isozymes (PLC-B3): Fluorescence-based biochemical high throughput dose response assay to identify inhibitors of phospholipase C isozymes (PLC-gamma1).
Chain of 1-phosphatidylinositol 4,5-bisphosphate phosphodiesterase gamma-1 (P19174 whole entry): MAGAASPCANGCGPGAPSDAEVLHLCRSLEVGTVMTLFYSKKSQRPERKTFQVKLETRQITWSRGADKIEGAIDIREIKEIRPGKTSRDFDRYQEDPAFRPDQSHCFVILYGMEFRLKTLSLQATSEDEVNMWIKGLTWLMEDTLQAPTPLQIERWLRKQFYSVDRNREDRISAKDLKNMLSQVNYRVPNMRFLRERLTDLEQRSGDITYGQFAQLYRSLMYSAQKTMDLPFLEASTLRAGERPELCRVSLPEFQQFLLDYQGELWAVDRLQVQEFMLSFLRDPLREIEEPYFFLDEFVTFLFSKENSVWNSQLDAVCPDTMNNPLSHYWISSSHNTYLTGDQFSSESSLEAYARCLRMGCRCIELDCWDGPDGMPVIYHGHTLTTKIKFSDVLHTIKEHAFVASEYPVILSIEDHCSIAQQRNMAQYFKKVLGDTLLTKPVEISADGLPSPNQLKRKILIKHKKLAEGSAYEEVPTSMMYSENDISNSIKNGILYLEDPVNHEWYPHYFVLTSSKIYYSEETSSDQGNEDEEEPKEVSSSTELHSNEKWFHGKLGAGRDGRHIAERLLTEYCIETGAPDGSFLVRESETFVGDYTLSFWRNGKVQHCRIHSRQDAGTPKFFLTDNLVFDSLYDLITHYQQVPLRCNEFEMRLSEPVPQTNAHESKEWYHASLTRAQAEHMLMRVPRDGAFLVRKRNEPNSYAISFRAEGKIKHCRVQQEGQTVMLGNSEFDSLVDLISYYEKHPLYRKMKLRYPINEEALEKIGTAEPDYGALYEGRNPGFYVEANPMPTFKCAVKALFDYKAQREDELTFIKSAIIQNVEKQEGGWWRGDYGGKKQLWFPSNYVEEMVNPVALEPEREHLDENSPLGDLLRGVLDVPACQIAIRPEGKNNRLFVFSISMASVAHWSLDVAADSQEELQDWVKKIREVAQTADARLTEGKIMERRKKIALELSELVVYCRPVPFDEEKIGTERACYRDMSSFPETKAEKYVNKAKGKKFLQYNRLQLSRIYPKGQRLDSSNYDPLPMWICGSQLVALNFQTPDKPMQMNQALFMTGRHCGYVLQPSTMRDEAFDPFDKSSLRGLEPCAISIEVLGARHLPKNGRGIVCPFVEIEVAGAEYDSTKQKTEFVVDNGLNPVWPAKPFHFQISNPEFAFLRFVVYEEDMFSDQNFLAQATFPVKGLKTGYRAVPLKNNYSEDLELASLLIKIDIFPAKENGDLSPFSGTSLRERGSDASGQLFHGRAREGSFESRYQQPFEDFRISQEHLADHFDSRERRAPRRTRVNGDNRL

[9] = inhibitors of non-replicating M. tuberculosis, dose response, luciferase, dry powder (AID 651619); assay type: functional; conditions: Mycobacterium tuberculosis
[10] = inhibitors of non-replicating M. tuberculosis, dose response, luciferase, dry powder (AID 651620); assay type: functional; conditions: Mycobacterium tuberculosis
[11] = growth inhibition of replicating M. tuberculosis, dose response, counter-screen, dry powder, IC90 (AID 651617); assay type: functional; conditions: Mycobacterium tuberculosis
[12] = HepG2 cell cytotoxicity, dose response, cytotoxicity control, plate reader, cherry-pick, antagonist series (AID 743416); assay type: functional, cell-based
[13] = MC4R antagonists, dose response, counter-screen for LGR2 antagonist project, cell-based, plate reader, cherry pick (AID 743444); assay type: functional;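 note: transfected HEK 293 cells stimulated with alpha-MSH peptide; potency of inhibitors of the alpha-MSH evoked signal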
[14] = HEK293 cell cytotoxicity, dose response, cytotoxicity control, plate reader, cherry-picked samples (AID 743446); assay type: functional, cell-based
[15] = LGR2 antagonists, dose response, cell-based, HEK293, CRE-luciferase reporter, cherry pick, set 2 (AID 743343); assay type: functional;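 note: transfected cells were stimulated with diluted bursicon conditioned medium after compound addition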
[16] = IGROV1 ovarian cancer cell cytotoxicity, dose response, PAX8 inhibitor project, plate reader, dry powder samples (AID 743043); assay type: functional, cell-based; conditions: IGROV-1
[17] = cytotoxicity in OVCAR8 ovarian cancer cells, dose response, PAX8 project, cell-based, plate reader, dry powder samples (AID 743197); assay type: functional; conditions: OVCAR-8
Paired box protein Pax-8 = Paired box protein Pax-8 (Homo sapiens, UniProt Q06710); assay: inhibitors of PAX8-driven TPO luciferase reporter, dose response, RMG-I cells, cherry-pick (AID 687027); assay type: functional, cell-based;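 note: luciferase reporter driven by Pax8 target thyroperoxidase promoter measured by SteadyGlo luminescence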
Chain of Paired box protein Pax-8 (Q06710 whole entry): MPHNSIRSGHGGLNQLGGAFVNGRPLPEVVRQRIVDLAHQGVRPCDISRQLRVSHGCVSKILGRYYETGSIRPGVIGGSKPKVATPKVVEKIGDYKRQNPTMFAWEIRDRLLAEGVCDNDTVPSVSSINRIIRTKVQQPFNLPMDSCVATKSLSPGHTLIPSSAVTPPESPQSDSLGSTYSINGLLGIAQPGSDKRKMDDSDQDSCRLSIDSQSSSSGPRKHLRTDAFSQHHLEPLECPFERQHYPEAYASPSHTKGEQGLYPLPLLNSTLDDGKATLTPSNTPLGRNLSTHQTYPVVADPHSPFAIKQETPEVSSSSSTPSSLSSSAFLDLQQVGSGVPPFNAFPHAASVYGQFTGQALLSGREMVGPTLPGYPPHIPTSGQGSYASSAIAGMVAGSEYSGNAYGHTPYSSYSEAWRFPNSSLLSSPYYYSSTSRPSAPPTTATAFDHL

[18] = NIH:OVCAR-3 ovarian cancer cell cytotoxicity, dose response, PAX8 inhibitor project, plate reader, dry powder samples (AID 743044); assay type: functional, cell-based
[19] = A549 cell cytotoxicity, dose response, cytotoxicity control, plate reader, cherry-pick, antagonist series (AID 743412); assay type: functional, cell-based
[20] = IOSE-T80 ovarian epithelial cell cytotoxicity, dose response, cytotoxicity control for PAX8 inhibitor project, plate reader, dry powder samples (AID 743045); assay type: functional, cell-based
INS1 = assay: beta cell apoptosis inhibitors, cytokine rescue, dose response, luminescence, retest (AID 449756); assay type: functional, cell-based; conditions: Rattus norvegicus;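 note: cell death triggered by IL-1 beta plus TNF-alpha plus IFN-gamma mixture; protective hits raise ATP signal compared with cytokine alone wells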
[21] = molecular target: T1, Replicative DNA helicase DnaB (Mycobacterium tuberculosis, UniProt P9WMR3); assay: DnaB intein splicing inhibitors, dose response, biochemical, cell-free fluorescence (AID 449749); assay type: functional
T1 sequence (P9WMR3 whole entry): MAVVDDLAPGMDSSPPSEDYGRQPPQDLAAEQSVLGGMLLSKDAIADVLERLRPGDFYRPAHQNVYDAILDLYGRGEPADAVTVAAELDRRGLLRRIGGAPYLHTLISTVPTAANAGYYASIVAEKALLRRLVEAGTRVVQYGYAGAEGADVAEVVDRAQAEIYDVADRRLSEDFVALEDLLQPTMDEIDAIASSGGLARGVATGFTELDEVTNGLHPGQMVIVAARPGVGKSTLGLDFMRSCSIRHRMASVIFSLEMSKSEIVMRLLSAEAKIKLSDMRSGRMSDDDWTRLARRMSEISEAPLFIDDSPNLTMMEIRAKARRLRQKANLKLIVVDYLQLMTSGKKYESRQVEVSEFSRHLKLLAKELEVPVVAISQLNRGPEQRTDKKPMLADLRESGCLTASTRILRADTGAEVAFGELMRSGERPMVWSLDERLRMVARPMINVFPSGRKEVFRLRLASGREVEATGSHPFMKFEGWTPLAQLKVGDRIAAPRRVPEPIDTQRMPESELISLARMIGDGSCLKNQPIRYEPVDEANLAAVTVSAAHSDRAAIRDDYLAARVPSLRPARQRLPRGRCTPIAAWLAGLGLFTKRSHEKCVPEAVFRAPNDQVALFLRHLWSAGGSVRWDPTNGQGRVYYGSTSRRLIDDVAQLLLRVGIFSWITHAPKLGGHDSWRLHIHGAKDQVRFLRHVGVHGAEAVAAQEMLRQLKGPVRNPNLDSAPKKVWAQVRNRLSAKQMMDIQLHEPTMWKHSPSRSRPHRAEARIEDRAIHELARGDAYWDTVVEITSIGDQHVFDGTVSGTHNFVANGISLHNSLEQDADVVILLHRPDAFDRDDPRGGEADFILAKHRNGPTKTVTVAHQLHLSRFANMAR

[22] = Shn3 3'UTR reporter inhibitors, dose response, cell-based, Clone20 osteoblasts, firefly luciferase, cherry-picked (AID 624132); assay type: functional;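 note: firefly luciferase luminescence from reporter carrying the Shn3 3'UTR in osteoblasts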
Protein RecA = molecular target: T2, Protein RecA (Mycobacterium tuberculosis, UniProt P9WHJ3); assay: Fluorescence Cell-Free Homogeneous Dose Retest to Identify Inhibitors of RecA-Intein Splicing Activity. [Related pubchem assays (depositor defined):AID2097, AID2223, AID489010, AID492950]; assay type: functional
T2 sequence (P9WHJ3 whole entry): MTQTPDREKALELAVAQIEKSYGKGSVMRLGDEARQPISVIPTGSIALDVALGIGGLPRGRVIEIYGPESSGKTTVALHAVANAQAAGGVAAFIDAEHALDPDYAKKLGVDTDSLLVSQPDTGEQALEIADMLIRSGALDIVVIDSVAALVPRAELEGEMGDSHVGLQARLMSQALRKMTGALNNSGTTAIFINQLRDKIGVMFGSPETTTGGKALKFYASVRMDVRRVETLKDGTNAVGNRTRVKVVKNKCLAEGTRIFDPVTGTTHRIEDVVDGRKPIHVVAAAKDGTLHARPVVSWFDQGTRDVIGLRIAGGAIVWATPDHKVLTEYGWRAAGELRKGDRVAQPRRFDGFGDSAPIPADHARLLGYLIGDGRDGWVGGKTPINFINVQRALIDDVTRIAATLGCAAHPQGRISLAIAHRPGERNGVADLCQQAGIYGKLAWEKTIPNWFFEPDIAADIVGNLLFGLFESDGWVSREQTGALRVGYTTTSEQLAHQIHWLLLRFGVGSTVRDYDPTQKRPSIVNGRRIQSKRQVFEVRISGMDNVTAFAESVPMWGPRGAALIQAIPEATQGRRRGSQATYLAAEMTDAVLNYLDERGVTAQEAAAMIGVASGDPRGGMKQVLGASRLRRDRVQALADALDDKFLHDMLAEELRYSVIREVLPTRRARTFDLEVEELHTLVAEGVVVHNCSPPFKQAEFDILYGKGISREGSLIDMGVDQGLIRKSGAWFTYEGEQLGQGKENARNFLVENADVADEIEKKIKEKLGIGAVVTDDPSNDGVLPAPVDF

[23] = HepG2 cell cytotoxicity, dose response, cytotoxicity control for Shn3 inhibitor project, CellTiter-Glo, cherry-picked (AID 624134); assay type: functional, cell-based
[24] = molecular target: COUP transcription factor 2 (Homo sapiens, UniProt P24468); assay: Luminescence-based cell-based high throughput dose response assay to identify inhibitors of COUP-TFII (NR2F2).; assay type: functional;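 note: HEK293 cells transiently cotransfected with COUP-TFII expression vector and reporter; luciferase reporter luminescence driven by COUP-TFII from the pX2-168 reporter plasmid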
Chain of COUP transcription factor 2 (P24468 whole entry): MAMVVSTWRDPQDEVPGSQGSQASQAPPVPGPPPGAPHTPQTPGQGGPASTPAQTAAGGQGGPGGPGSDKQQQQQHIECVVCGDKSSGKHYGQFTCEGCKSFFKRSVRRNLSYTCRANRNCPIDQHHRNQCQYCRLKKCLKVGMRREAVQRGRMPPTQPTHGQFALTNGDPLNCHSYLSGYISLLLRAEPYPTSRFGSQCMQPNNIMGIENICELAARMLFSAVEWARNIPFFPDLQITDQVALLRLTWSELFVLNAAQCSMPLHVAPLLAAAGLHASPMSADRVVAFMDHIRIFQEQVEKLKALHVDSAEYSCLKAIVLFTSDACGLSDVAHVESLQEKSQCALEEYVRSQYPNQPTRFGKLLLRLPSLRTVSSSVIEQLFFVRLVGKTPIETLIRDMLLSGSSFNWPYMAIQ

[25] = control 3'UTR Renilla luciferase suppression, dose response, counter-screen for Shn3 inhibitor project, cell-based, Clone20-Shn3RL, cherry-picked (AID 624133); assay type: functional
[26] = HEK293T cell cytotoxicity, dose response, cytotoxicity control, luminescence plate reader, powder samples, set 4 (AID 651863); assay type: functional, cell-based; conditions: HEK293
[27] = HepG2 cell cytotoxicity, dose response, cytotoxicity control, luminescence plate reader, powder samples, set 2 (AID 651860); assay type: functional, cell-based

Structure (SMILES): CO[C@H]1CN(C)C(=O)c2ccc(NC(=O)c3ccc(-c4ccccc4)cc3)cc2OC[C@@H](C)NC[C@@H]1C
- AC50 [1]: 2.02 µM (active)
- AC50 [2]: 13.4 µM (active)
- AC50 [3]: > 70 µM (inactive)
- AC50 [4]: 16.3 µM (active)
- AC50 [5]: 10.9 µM (active)
- AC50 [6]: 7.74 µM (active)

Structure (SMILES): O=[N+]([O-])c1ccc2[nH]cc(S(=O)(=O)N3CCN(c4cccc(Cl)c4)CC3)c2c1
- IC50 [7]: > 122 µM (inactive)
- IC50 [8]: > 122 µM (inactive)

Structure (SMILES): Fc1ccc(Cn2cc(CSc3nnc(C4CCCC4)o3)nn2)cc1
- IC90 [9]: 2 µM (active)
- IC90 [10]: 2 µM (active)
- IC90 [11]: 250 µM (active)

Structure (SMILES): Cn1cnc(S(=O)(=O)N2C[C@@H]3N[C@H](C2)[C@@H]3c2ccc(-c3ccccc3F)cc2)c1
- AC50 [12]: 28.2 µM (active)
- AC50 [1]: 3.72 µM (active)
- AC50 [13]: 6.25 µM (active)
- AC50 [14]: > 52 µM (inactive)
- AC50 [15]: 18.9 µM (active)
- AC50 [16]: 27.1 µM (active)
- AC50 [17]: 24.5 µM (active)
- AC50 (Paired box protein Pax-8): 4.26 µM (active)
- AC50 [18]: 22 µM (active)
- AC50 [19]: 11 µM (active)
- AC50 [20]: 25.9 µM (active)

Structure (SMILES): Cc1cccc(Nc2nc(NCc3ccco3)c3ccccc3n2)c1
- AC50 (INS1): 2.09 µM (active)
- AC50 [21]: 5.65 µM (active)
- AC50 [22]: 2.05 µM (active)
- EC50 (Protein RecA): 9.37 µM (active)
- AC50 [23]: 13.1 µM (active)
- IC50 [24]: 8.5 µM (active)
- AC50 [25]: 3.22 µM (active)

Structure (SMILES): Cc1ccc(S(=O)(=O)NC2=C/C(=N\[C@@H](C)C(=O)OC(C)(C)C)C(=O)c3ccccc32)c(C)c1
- AC50 [26]: 16.3 µM (active)
- AC50 [27]: 43 µM (active)
